Assay results taken from patent US20130323753A1, “METHODS AND KITS FOR IDENTIFICATION OF ANTI-EXCITOTOXIC COMPOUNDS” (RUTGERS, THE STATE UNIVERSITY OF NEW JERSEY, priority 2007, published 2013).
“Also recorded” adds a separate entry of the source.

Tests used:
spinal cord neurons = experiment: Neuron survival (MAP-2+ count) in mixed spinal cord cultures grown in SCM, glutamate toxicity; type: cell-based, rat; conditions: for glutamate-elicited neuronal cell death, dose dependence: various concentrations of glutamate
Description: Spinal cords were dissected from embryonic day 16 (E16) rat embryos. Meninges were removed, and the cords were dissociated with gentle trituration. Cells were plated at a density of 350 neurons/mm^2.
(§1) When cells were treated with glutamate, the medium was replaced with solutions of glutamate in Locke's buffer, with or without UA, for 1 hour at 37° C. In control cultures, the medium was replaced with Locke's buffer. After 1 hour, glutamate solutions were changed to SCM or NB and UA was added at the same concentration. In all cases, same amount of Locke's buffer was added to control as vehicle. When the cultures were treated with Sin-1, the drug was added directly to the medium with or without UA, and the same amount of PBS and Locke's buffer were added to control as vehicle. In all cases, cells were incubated for another 24 hours at 37° C. before being fixed or harvested.
(§2) Cells were fixed with 4% paraformaldehyde for 30 minutes at room temperature. After washing with PBS, the cultures were incubated with anti-MAP-2 (1:500), anti-GFAP (1:1000), anti-CNPase (1:500), anti-vimentin (1:1000) or anti-CD11 (1:500) for 2 hours at room temperature. Positive cells were then visualized with Cy2 anti-mouse secondary antibodies.
(§3) For each well, pictures were taken for 10 random fields at a magnification of 100×. Cell number (as indicated by the appropriate immunostain) in each of the 10 pictures was counted by an experimenter blind to the condition. Cell numbers in control and treated groups were compared with one-way analysis of variance (ANOVA) using the Instat software program (Graph Pad).
Glutamate is the major physiological agent that mediates cell death after spinal cord injury. To examine the survival of spinal cord neurons in an in vitro model of SCI, mixed cell cultures derived from embryonic 16 (E16) rat spinal cords were treated with a range of concentrations of glutamate. These cells were grown in serum-containing medium (SCM) for 6 days (DIV 6) before being treated with various concentrations of glutamate for 1 hour. The brief exposure to high levels of glutamate mimics its temporary up-regulation after SCI. After glutamate was removed, cells were kept in SCM for another 24 hours before the cultures were fixed and immunostained. The numbers of surviving neurons were monitored with immunohistochemical labeling of MAP-2, a marker for neurons.
To determine whether UA can be used to prevent glutamate toxicity, initial experiments monitored the effects of UA on spinal cord neuron survival during basal conditions. DIV 6 cultures were treated with different concentrations of UA for 24 hours before being fixed and immunostained, and the numbers of neurons were counted. […] The results were derived from 2 independent experiments (n=6).
Further experiments were designed to reveal if UA could reduce neuronal cell death after glutamate exposure. Cells were treated with 500 μM glutamate with or without various concentrations of UA. UA was applied with glutamate and the same concentration of UA was added after the removal of glutamate. […] With high concentrations of UA, glutamate-promoted neuronal cell death was abolished (FIG. 3B). The results were derived from 6 independent experiments (n=12).

[1] = test system: pure spinal cord neuron cultures; experiment: Neuron survival (MAP-2+ count) in pure spinal cord neuron cultures, glutamate toxicity; type: cell-based, rat; conditions: for neuron loss: 1 hour
Description: (§4) To grow pure spinal neuron cultures, SCM was changed to Neurobasal medium (NB; Neurobasal medium (Gibco) supplemented with B-27, penicillin, and streptomycin) at 24 hours after plating. After an additional 24 hours, cytosine arabinoside (Ara-C, 5 μM) was added to these cultures for 3 days after which the Ara-C containing media was changed to fresh NB media. Cells were treated 24 hours later.
as §1, §2, §3
To address this question, pure spinal cord neuron cultures were established. Twenty four hours after plating in SCM, SCM was changed to NB medium, which optimizes neuronal growth. Ara-C (5 μM) was added to the cultures after another 24 hours to eliminate the glial populations. The medium was changed after 3 days, and cells were treated 24 hours later. This procedure eliminated non-neuronal cell types in the cultures with only neurons surviving.
To determine the sensitivity of pure neuronal and mixed cultures to glutamate, pure spinal cord neuron cultures were established, and after 6 days, these cells were treated with glutamate for 1 hour. Cells were fixed after 24 hours and stained with anti-MAP-2 antibody. (A) Control cultures and cells treated with 2, 10, and 500 μM glutamate are illustrated. […] Results were derived from 3 independent experiments (n=7). ***p<0.001 by nonparametric ANOVA followed by Dunn's analysis comparing glutamate treated groups with control. Scale bar, 50 μm.
To examine whether UA can directly reduce glutamate toxicity in pure neuronal cultures, cells were treated with or without various concentrations of UA either concurrent with or at the termination of exposure to 10 μM glutamate. More specifically, six days after plating, pure spinal cord neuron cultures were treated with glutamate (10 or 500 μM) for 1 hour. UA (100 or 200 μM) was added with and after glutamate treatments. Cells were fixed after 24 hours and numbers of neurons that survived (MAP-2+) were counted. Results shown in FIG. 6 were derived from 2 independent experiments (n=6). ***p<0.001 by nonparametric ANOVA followed by Dunn's analysis for multiple comparisons comparing treated groups with control.

[2] = test system: pure spinal cord neuron cultures; experiment: Sin-1 (peroxynitrite donor) toxicity in pure spinal cord neuron cultures; type: cell-based, rat; conditions: Sin-1 250 μM 1-hr
Description: as §4
THA was dissolved in PBS.
as §1
Results were derived from 2 independent experiments (n=6). ***p<0.001 by parametric ANOVA followed by Bonferroni Multiple Comparisons Test.

spinal cord injury = conditions: pre-treatment and concurrent treatment with UA; cited from earlier work
[3] = test system: mouse spinal cord neuron cultures; conditions: mouse spinal cord neuron cultures treated with UA; cited from earlier work
EAAT-1 = experiment: Western blot of EAAT-1 protein in mixed spinal cord cultures; type: cell-based, rat
Description: (§5) At DIV 7, control and treated mixed spinal cord cultures grown on 35 mm dishes were scraped and protein was harvested in TEEN (25 mM Tris-HCl, pH 7.4, 1 mM EDTA, 1 mM EGTA, 100 mM NaCl) supplemented with 1 mM phenylmethylsulfonyl fluoride (PMSF). Proteins were resolved on 10% SDS-polyacrylamide gels and transferred to PVDF membranes.
(§6) After blocking with 3% bovine serum albumin (BSA), the membrane was incubated with primary antibodies: anti-EAAT-1 (goat polyclonal antibody from Santa Cruz Inc., 1:500) overnight at 4° C.; anti-EAAT-2 (goat polyclonal antibody from Santa Cruz Inc., 1:500) overnight at 4° C.; or anti-actin (mouse monoclonal antibody from Sigma-Aldrich, 1:2000) for 1 hour at room temperature (RT). After washing, the secondary antibody, horseradish peroxidase linked IgG (anti-goat for EAAT-1 and EAAT-2, anti-mouse for actin), was applied at 1:2000 for one hour at RT. The bands were visualized using the enhanced chemiluminescence (ECL) system (Amersham Biosci.).
(§7) The results of the Western blot experiments were analyzed with Universal Hood Gel Documentation Systems and Quantity One V4.2.1 software (BIO-RAD).
(§8) Additional studies examined whether UA affects protein expression of EAAT-1 and EAAT-2. […]

[4] = test system: spinal cord neurons co-cultured with astroglia; experiment: Astroglia re-plated onto pure spinal cord neuron cultures, glutamate toxicity; type: cell-based, rat; conditions: glutamate 50 μM 1 hour, then 100 μM UA
Description: Spinal cord astroglial cultures were derived from postnatal day 1 rats using a modified approach from MaCarthy and de Vellis (McCarthy and deVellis 1980). Spinal cords were dissected and dissociated with trituration. Cells were plated in tissue culture flasks at density of 1000 cells/mm^2. Cultures were grown in NM-15 medium (84.4% MEM, 15% Fetal Bovine Serum, 0.6% glucose, supplemented with penicillin and streptomycin) for 9 days. Medium was changed every 3 days. The flasks were then shaken at 400×rpm for 20 minutes before the medium was changed and the floating cells (mostly microglia) were washed away. The flasks were again shaken overnight at 250×rpm to remove attached oligodendrocytes and remaining microglia. Following shaking, floating cells were washed away and medium was changed. Ara-C was added to final concentration of 10 μM to reduce the number of undifferentiated cells. Cultures were grown for 3 additional days before being trypsinized and re-plated at a density of 500 cells/mm^2 in SCM. These cultures only contain GFAP+ and vimentin+ astroglia. Staining for MAP-2 and CNPase were negative.
To determine the contribution of direct astroglial cell presence to the neuroprotective effects of UA, astroglial cultures were grown for 5 days in SCM before the cells were trypsinized and plated onto pure spinal cord neuron cultures grown for 5 days in vitro (DIV 5). […]

[5] = at normal human levels; cited from earlier work
EAAT-2 = experiment: Western blot of EAAT-2 protein in mixed spinal cord cultures; type: cell-based, rat; conditions: UA 100 μM 24 hours, glutamate, or glutamate and UA
Description: as §5, §6, §7, §8

## N[C@@H](CCC(=O)O)C(=O)O [glutamate]
Spinal cord neurons; glutamate 500 μM and 1 mM, 1 hour, mixed cultures, fixed 24 hours later
  neurons that did not survive: approximately 40%
Spinal cord neurons; mixed cultures, 1 hour
  glutamate-elicited neuronal cell death, dose dependence: increased in a dose-dependent manner
Spinal cord neurons; mixed cultures, 1 hour, listed as Glutamate
  glutamate-elicited neuronal cell death, dose dependence: induces loss of spinal cord neurons in a dose-dependent manner
[1]; glutamate 10 μM
  neuron loss: more than 80%
[1]; glutamate 500 μM
  neuron loss: essentially eliminated all neurons; also recorded: almost total neuron elimination
[1]; glutamate 1 hour
  cell loss, dose dependence: dose-dependent cell loss

## O=c1[nH]c(=O)c2[nH]c(=O)[nH]c2[nH]1 [UA, uric acid]
[2]; UA 100 μM added after
  toxicity elicited by Sin-1, UA added after Sin-1: did not elicit a reversal of toxicity
[2]; UA 100 μM concurrent
  toxicity elicited by Sin-1, UA concurrently present: significantly reversed; also recorded: reduces damages elicited by Sin-1 treatment
Spinal cord injury
  secondary damage: reduced secondary damage
Spinal cord neurons; 100 μM UA, cultures grown in SCM
  cell loss elicited by glutamate at 100 μM UA: reversed the cell loss
Spinal cord neurons; 500 μM glutamate 1 hour, various concentrations of UA, mixed cultures
  effect on glutamate toxicity, UA added with and after glutamate: blocked glutamate toxicity in a dose-dependent manner
Spinal cord neurons; 500 μM glutamate, high concentrations of UA added with and after glutamate, mixed cultures
  glutamate-promoted neuronal cell death at high concentrations of UA: abolished
Spinal cord neurons; UA different concentrations, 24 hours, DIV 6 mixed cultures, no glutamate
  effect on survival of spinal cord neurons during basal conditions: no effect on the survival of spinal cord neurons; also recorded: does not affect survival of spinal cord neurons
[1]; UA 100 or 200 μM
  effect of UA itself on neuron survival: no effect on neuron survival
[1]; UA 100 or 200 μM with and after glutamate (10 or 500 μM, 1 hour)
  protection against glutamate toxicity: did not show any protection against glutamate toxicity; also recorded: did not alter the neuron loss; also recorded: did not protect spinal cord neurons against glutamate toxicity; also recorded: does not decrease glutamate toxicity
[3]
  peroxynitrite toxicity: blocked peroxynitrite toxicity
EAAT-1; UA 100 μM, 24 hours, mixed cultures DIV 6
  EAAT-1 protein expression normalized to actin: upregulated
EAAT-1; glutamate 500 μM 1 hour, then UA 100 μM
  EAAT-1 protein expression, glutamate prior to UA: did not influence UA actions in increasing EAAT-1 protein expression
[4]
  toxic effects of glutamate in astroglia/neuron combined cultures: blocked the toxic effects of glutamate; also recorded: reinstates the effects of UA in reducing glutamate toxicity
[5]
  carbon dioxide binding with peroxynitrite, times faster than UA: 920 times
EAAT-2
  EAAT-2 protein expression normalized to actin: not altered
